Measurements: patent publication US5225531A, “Hexapeptide Lys Gly Ala Gly Asp Val” (Washington University, priority 1992, dated 1993)
No end group written: not given here.

System: human platelet rich plasma
Assay type: cell-based
Protocol: Platelet aggregation assay--Aggregation studies using human platelet rich plasma were performed as previously described (20). Briefly, blood from human volunteers who had not taken any antiplatelet drugs in the previous two weeks was collected into 1/10th volume of CCD buffer (100 mM sodium citrate, 136 mM glucose, pH 6.5). The blood was centrifuged for 3 min at 1000×g and the platelet rich plasma (PRP) was transferred to a plastic tube with a plastic pipet. The PRP was adjusted to 2×10^8 platelets/ml with platelet poor plasma (prepared by centrifuging anti-coagulated blood at 2000×g for 15 min) and placed on ice. PRP and control (saline) or test peptides (500 μl) were incubated with 5 μM ADP at 37° C. in a silanized glass cuvette with stirring (900 RPM). The extent of aggregation was monitored with a Payton aggregometer 2 min after the addition of ADP. Inhibition of aggregation for each sample was determined using the following formula: % Inhibition=[…], where Tbase =% of light transmission in PRP, Tagg =% of light transmission in the aggregated PRP sample containing the saline control for peptides, and Tpep =% of light transmission in the aggregated PRP sample containing the peptide inhibitor.

## HHLGGAKGAGDV
  Platelet ID50 (inhibition of platelet aggregation): > 100 µM
